Reference: a compilation of properties of binary mixtures (doi:10.1016/j.molliq.2017.11.153)

Assay: xn = mol fraction of the nth substance listed
Conditions: 101 kPa

CC1COC(=O)O1 (configuration not stated) + CCCC[n+]1ccccc1.N#C[N-]C#N
x2 = 0
Conditions | viscosity [mPa·s]
288.15 K | 3.064
293.15 K | 2.738
298.15 K | 2.469
303.15 K | 2.24
308.15 K | 2.042
313.15 K | 1.873
323.15 K | 1.595
328.15 K | 1.464
338.15 K | 1.277
343.15 K | 1.195
348.15 K | 1.122
353.15 K | 1.056

CCCC[n+]1ccccc1.N#C[N-]C#N + CC1COC(=O)O1
Conditions | electrical conductivity [S/m] | viscosity [mPa·s]
288.15 K, x1 = 0.197 | 0.742 | 6.99
288.15 K, x1 = 0.3005 | 1.42 | 9.49
288.15 K, x1 = 0.4003 | 1.56 | 13.97
288.15 K, x1 = 0.4997 | 1.5 | 17.55
288.15 K, x1 = 0.6002 | 1.73 | 22.95
288.15 K, x1 = 0.7011 | 1.64 | 29.62
288.15 K, x1 = 0.7885 | 1.86 | 36.03
288.15 K, x1 = 0.9008 | 1.76 | 44.07
288.15 K, x1 = 1 | 1.05 | 51.49
293.15 K, x1 = 0.1003 | 0.749 | 4.23
293.15 K, x1 = 0.197 | 0.986 | 5.99
293.15 K, x1 = 0.3005 | 1.54 | 8.102
293.15 K, x1 = 0.4003 | 1.7 | 11.73
293.15 K, x1 = 0.6002 | 1.89 | 18.85
293.15 K, x1 = 0.7011 | 1.8 | 24.05
293.15 K, x1 = 0.7885 | 2.06 | 29.56
293.15 K, x1 = 0.9008 | 1.96 | 36.12
293.15 K, x1 = 1 | 1.24 | 41.05
298.15 K, x1 = 0.1003 | 0.979 | 3.756
298.15 K, x1 = 0.197 | 1.25 | 5.229
298.15 K, x1 = 0.4003 | 1.92 | 10
298.15 K, x1 = 0.4997 | 1.92 | 12.17
298.15 K, x1 = 0.6002 | 2.1 | 15.72
298.15 K, x1 = 0.9008 | 2.19 | 29.65
298.15 K, x1 = 1 | 1.48 | 33.27
303.15 K, x1 = 0.1003 | 1.18 | 3.361
303.15 K, x1 = 0.197 | 1.49 | 4.616
303.15 K, x1 = 0.4003 | 2.13 | 8.585
303.15 K, x1 = 0.4997 | 2.16 | 10.33
303.15 K, x1 = 0.7011 | 2.3 | 16.61
303.15 K, x1 = 0.7885 | 2.54 | 20.61
303.15 K, x1 = 0.9008 | 2.44 | 24.44
303.15 K, x1 = 1 | 1.75 | 27.62
308.15 K, x1 = 0.197 | 1.71 | 4.109
308.15 K, x1 = 0.4003 | 2.36 | 7.468
308.15 K, x1 = 0.4997 | 2.37 | 8.918
308.15 K, x1 = 0.6002 | 2.6 | 11.36
308.15 K, x1 = 0.7885 | 2.82 | 17.47
308.15 K, x1 = 0.9008 | 2.72 | 20.45
308.15 K, x1 = 1 | 2.01 | 22.9
313.15 K, x1 = 0.197 | 1.97 | 3.689
313.15 K, x1 = 0.4003 | 2.62 | 6.563
313.15 K, x1 = 0.4997 | 2.63 | 7.769
313.15 K, x1 = 0.6002 | 2.85 | 9.83
313.15 K, x1 = 0.7011 | 2.8 | 12.08
313.15 K, x1 = 0.7885 | 3.1 | 14.86
313.15 K, x1 = 0.9008 | 3 | 17.22
313.15 K, x1 = 1 | 2.26 | 19.3
318.15 K, x1 = 0.197 | 2.19 | 3.335
318.15 K, x1 = 0.3005 | 2.75 | 4.265
318.15 K, x1 = 0.4003 | 2.89 | 5.812
318.15 K, x1 = 0.4997 | 2.92 | 6.839
318.15 K, x1 = 0.6002 | 3.13 | 8.579
318.15 K, x1 = 0.7885 | 3.39 | 12.44
318.15 K, x1 = 0.9008 | 3.28 | 14.84
318.15 K, x1 = 1 | 2.54 | 16.73
323.15 K, x1 = 0.1003 | 2 | 2.291
323.15 K, x1 = 0.4003 | 3.17 | 5.183
323.15 K, x1 = 0.4997 | 3.27 | 6.066
323.15 K, x1 = 0.6002 | 3.42 | 7.559
323.15 K, x1 = 0.9008 | 3.6 | 12.65
323.15 K, x1 = 1 | 2.88 | 14.44
328.15 K, x1 = 0.1003 | 2.23 | 2.121
328.15 K, x1 = 0.197 | 2.71 | 2.794
328.15 K, x1 = 0.3005 | 3.33 | 3.481
328.15 K, x1 = 0.4003 | 3.48 | 4.656
328.15 K, x1 = 0.4997 | 3.61 | 5.42
328.15 K, x1 = 0.7011 | 3.77 | 8.083
328.15 K, x1 = 0.7885 | 4.05 | 9.34
328.15 K, x1 = 0.9008 | 3.93 | 11.05
333.15 K, x1 = 0.1003 | 2.43 | 1.968
333.15 K, x1 = 0.4003 | 3.83 | 4.209
333.15 K, x1 = 0.4997 | 3.94 | 4.876
333.15 K, x1 = 0.6002 | 4.07 | 6.001
333.15 K, x1 = 0.7885 | 4.4 | 8.312
333.15 K, x1 = 0.9008 | 4.29 | 9.53
338.15 K, x1 = 0.1003 | 2.64 | 1.834
338.15 K, x1 = 0.3005 | 4.02 | 2.906
338.15 K, x1 = 0.4003 | 4.17 | 3.827
338.15 K, x1 = 0.4997 | 4.3 | 4.429
338.15 K, x1 = 0.6002 | 4.43 | 5.401
338.15 K, x1 = 0.7011 | 4.53 | 6.433
338.15 K, x1 = 0.7885 | 4.78 | 7.324
338.15 K, x1 = 0.9008 | 4.68 | 8.488
338.15 K, x1 = 1 | 3.83 | 9.79
343.15 K, x1 = 0.1003 | 2.85 | 1.716
343.15 K, x1 = 0.197 | 3.42 | 2.232
343.15 K, x1 = 0.3005 | 4.37 | 2.675
343.15 K, x1 = 0.4003 | 4.53 | 3.498
343.15 K, x1 = 0.4997 | 4.68 | 4.039
343.15 K, x1 = 0.6002 | 4.83 | 4.891
343.15 K, x1 = 0.7885 | 5.21 | 6.724
343.15 K, x1 = 1 | 4.21 | 8.771
348.15 K, x1 = 0.1003 | 3.07 | 1.612
348.15 K, x1 = 0.197 | 3.69 | 2.089
348.15 K, x1 = 0.4003 | 4.92 | 3.213
348.15 K, x1 = 0.4997 | 5.12 | 3.704
348.15 K, x1 = 0.6002 | 5.3 | 4.454
348.15 K, x1 = 0.7885 | 5.72 | 6.247
348.15 K, x1 = 0.9008 | 5.61 | 6.724
348.15 K, x1 = 1 | 4.53 | 7.884
353.15 K, x1 = 0.1003 | 3.26 | 1.519
353.15 K, x1 = 0.197 | 3.93 | 1.964
353.15 K, x1 = 0.3005 | 5.11 | 2.296
353.15 K, x1 = 0.4997 | 5.58 | 3.414
353.15 K, x1 = 0.6002 | 5.79 | 4.076
353.15 K, x1 = 0.7011 | 5.98 | 4.787
353.15 K, x1 = 0.7885 | 6.29 | 5.647
353.15 K, x1 = 0.9008 | 6.14 | 6.159
353.15 K, x1 = 1 | 4.93 | 7.129
